Test results taken from paper PMC10819888, “Benzimidazole-Based Derivatives as Apoptotic Antiproliferative Agents: Design, Synthesis, Docking, and Mechanistic Studies” (Molecules, 2024).

Assays:
Assay type in all cases: cell-based, human
MDA-MB-468 = assay: NCI-60 five-dose assay; details: MDA-MB-468 (Breast Cancer), 48 h
MOLT-4 = assay: NCI-60 five-dose assay; details: MOLT-4 (Leukemia), 48 h
HOP-62 = assay: NCI-60 five-dose assay; details: HOP-62 (Non-Small Cell Lung Cancer), 48 h
HT29 = assay: NCI-60 five-dose assay; details: HT29 (Colon Cancer), 48 h
SK-MEL-5 = assay: NCI-60 five-dose assay; details: SK-MEL-5 (Melanoma), 48 h
SK-OV-3 = assay: NCI-60 five-dose assay; details: SK-OV-3 (Ovarian Cancer), 48 h
KM12 = assay: NCI-60 five-dose assay; details: KM12 (Colon Cancer), 48 h
U251 = assay: NCI-60 five-dose assay; details: U251 (CNS Cancer), 48 h
SF-539 = assay: NCI-60 five-dose assay; details: SF-539 (CNS Cancer), 48 h
HCT-116 = assay: NCI-60 five-dose assay; details: HCT-116 (Colon Cancer), 48 h
HS 578T = assay: NCI-60 five-dose assay; details: HS 578T (Breast Cancer), 48 h
MDA-MB-435 = assay: NCI-60 five-dose assay; details: MDA-MB-435 (Melanoma), 48 h
Breast Cancer subpanel = assay: NCI-60 five-dose assay, subpanel
SW-620 = assay: NCI-60 five-dose assay; details: SW-620 (Colon Cancer), 48 h
Prostate Cancer subpanel = assay: NCI-60 five-dose assay, subpanel
A549/ATCC = assay: NCI-60 five-dose assay; details: A549/ATCC (Non-Small Cell Lung Cancer), 48 h
MALME-3M = assay: NCI-60 five-dose assay; details: MALME-3M (Melanoma), 48 h
DU-145 = assay: NCI-60 five-dose assay; details: DU-145 (Prostate Cancer), 48 h
MCF7 = assay: NCI-60 five-dose assay; details: MCF7 (Breast Cancer), 48 h
COLO 205 = assay: NCI-60 five-dose assay; details: COLO 205 (Colon Cancer), 48 h
SK-MEL-28 = assay: NCI-60 five-dose assay; details: SK-MEL-28 (Melanoma), 48 h
SN12C = assay: NCI-60 five-dose assay; details: SN12C (Renal Cancer), 48 h
NCI-H522 = assay: NCI-60 five-dose assay; details: NCI-H522 (Non-Small Cell Lung Cancer), 48 h
SR = assay: NCI-60 five-dose assay; details: SR (Leukemia), 48 h
A498 = assay: NCI-60 five-dose assay; details: A498 (Renal Cancer), 48 h
[1] = Homo sapiens, read-out: GI50 Conc. per Cell Line
[2] = Homo sapiens, read-out: LC50 (the source's name)

O=C(NN=Cc1ccc([N+](=O)[O-])cc1)c1ccc2[nH]c(-c3ccc(Cl)cc3)nc2c1 [Compound 4c, N′-(4-Nitrobenzylidene)-2-(4-chlorophenyl)-1H-benzimidazole-5-carbohydrazide]
GI50 (MDA-MB-468; [1]): 1.97 µM
TGI (MDA-MB-468): 4.79 µM
GI50 (MOLT-4; [1]): 0.421 µM
CC50 (MOLT-4; [2]): > 100 µM
TGI (MOLT-4): 3.85 µM
TGI (HOP-62): 30.80 µM
GI50 (HOP-62; [1]): 6.42 µM
CC50 (HOP-62; [2]): > 100 µM
TGI (HT29): >100 µM
GI50 (HT29; Homo sapiens, HT-29, read-out: GI50 Conc. per Cell Line): 3.02 µM
CC50 (HT29; Homo sapiens, HT-29, read-out: LC50 (the source's name)): > 100 µM
GI50 (SK-MEL-5; [1]): 2.11 µM
CC50 (SK-MEL-5; [2]): 12.8 µM
TGI (SK-MEL-5): 4.78 µM
GI50 (SK-OV-3; [1]): 11.4 µM
CC50 (SK-OV-3; [2]): > 100 µM
TGI (SK-OV-3): 39.60 µM
GI50 (KM12; [1]): 3.43 µM
CC50 (KM12; [2]): 82.6 µM
TGI (KM12): 13.00 µM
GI50 (U251; Homo sapiens, U-251, read-out: GI50 Conc. per Cell Line): 2.92 µM
CC50 (U251; Homo sapiens, U-251, read-out: LC50 (the source's name)): 48 µM
TGI (U251): 10.80 µM
GI50 (SF-539; [1]): 2.73 µM
CC50 (SF-539; [2]): 33.8 µM
TGI (SF-539): 10.10 µM
TGI (HCT-116): 6.90 µM
GI50 (HCT-116; [1]): 2.25 µM
CC50 (HCT-116; [2]): 82.3 µM
TGI (HS 578T): 24.40 µM
GI50 (HS 578T; [1]): 3.58 µM
CC50 (HS 578T; [2]): > 100 µM
GI50 (MDA-MB-435; [1]): 3.57 µM
CC50 (MDA-MB-435; [2]): 47.6 µM
TGI (MDA-MB-435): 12.20 µM
GI50 Selectivity Ratio (MID a/MID b) (Breast Cancer subpanel; Breast Cancer subpanel): 1.31
GI50 (Breast Cancer subpanel; Homo sapiens, Breast Cancer, average sensitivity of all subpanel cell lines, read-out: GI50 Subpanel MID b): 2.5 µM
GI50 (SW-620; [1]): 3.44 µM
TGI (SW-620): 10.80 µM
GI50 (Prostate Cancer subpanel; Homo sapiens, Prostate Cancer, average sensitivity of all subpanel cell lines, read-out: GI50 Subpanel MID b): 2.2 µM
GI50 Selectivity Ratio (MID a/MID b) (Prostate Cancer subpanel; Prostate Cancer subpanel): 1.49
TGI (A549/ATCC): 24.10 µM
GI50 (A549/ATCC; [1]): 3.98 µM
CC50 (A549/ATCC; [2]): > 100 µM
GI50 (MALME-3M; [1]): 1.48 µM
TGI (MALME-3M): 5.00 µM
TGI (DU-145): 21.40 µM
GI50 (DU-145; [1]): 3.99 µM
CC50 (DU-145; [2]): > 100 µM
GI50 (MCF7; [1]): 0.582 µM
CC50 (MCF7; [2]): 13.3 µM
TGI (MCF7): 2.85 µM
TGI (COLO 205): 3.76 µM
GI50 (COLO 205; [1]): 1.46 µM
GI50 (SK-MEL-28; [1]): 2.6 µM
CC50 (SK-MEL-28; [2]): 39 µM
TGI (SK-MEL-28): 10.30 µM
GI50 (SN12C; [1]): 3.14 µM
CC50 (SN12C; [2]): > 100 µM
TGI (SN12C): 18.10 µM
GI50 (NCI-H522; [1]): 3.05 µM
CC50 (NCI-H522; [2]): > 100 µM
TGI (NCI-H522): 11.70 µM
GI50 (SR; [1]): 0.566 µM
CC50 (SR; [2]): > 100 µM
TGI (SR): 4.87 µM
TGI (A498): 7.75 µM
GI50 (A498; [1]): 2.4 µM
CC50 (A498; [2]): 36.4 µM
